Test [1] relates to DLD-1 BRCA2(−/−) colorectal adenocarcinoma cells. Nature of the test: Cell viability assay (Cell Titer-Glo), DLD-1 BRCA2(−/−). Format: cell-based. The conditions noted are these: Homo sapiens, DLD-1, 168 h, 7 days, 200 cells/well. The source says: (§1) In some embodiments, the biological assay measures the effects that compounds of the present disclosure may have on the viability of cells, e.g., the viability of cancer cells. In some embodiments, DLD-1 wild-type and DLD-1 BRCA2(−/−) colorectal adenocarcinoma cells, an isogenic pair of cell lines differing in the presence and absence, respectively, of both BRCA2 alleles, are used to measure the effect of the disclosed compounds on the viability of cancer cells.
(§2) In some embodiments, the cells are harvested during the logarithmic growth period, counted, and seeded at a specified count in the wells of a 96- or 384-well cell culture plate. In some embodiments, after seeding, the cells are incubated, e.g., at 37° C., 5% CO2 overnight. In some embodiments, the cells are treated with compounds, e.g., with serially diluted test compounds at 8-11 concentrations within a desired concentration range, e.g., from 1 nM-10 μM, for the generation of dose-response curves. In some embodiments, the plate is further incubated, e.g., for another 3-7 days in a humidified incubator at 37° C. and 5% CO2. In some embodiments, cell viability is assessed by luminescence measurement after addition of Cell Titer-Glo reagent (Promega, Madison, Wis.) according to the manufacturer's instructions. In some embodiments, cell viability IC50 values are calculated using XLFit, equation 201: y=A+((B−A)/(1+((x/C)^D))), where A=bottom, B=top, C=IC50, and D=slope. In some embodiments, the effects of the test compounds on the viability of other cell lines such as MDA-MB-436, MDA-MB-231, SUM149PT, HCC1395, and UWB1.289 are determined in an analogous method.
(§3) Compounds of the present disclosure were tested for their effects on the viability of cancer cells. DLD-1 wild-type and DLD-1 BRCA2(−/−) colorectal adenocarcinoma cells, an isogenic pair of cell lines differing in the presence and absence, respectively, of both BRCA2 alleles, were used. The cells were harvested during the logarithmic growth period, counted, and seeded at 50 cells/well for DLD-1 wild-type and 200 cells/well for DLD-1 BRCA2(−/−) in a 384-well cell culture plate. After seeding, cells were incubated at 37° C., 5% CO2 overnight. Cells were treated with serially diluted test compounds at 10 concentrations from 1.5 nM-30 μM) for generation of dose response curves. The plate was further incubated for another 7 days in a humidified incubator at 37° C. and 5% CO2. Cell viability was assessed by luminescence measurement after addition of Cell Titer-Glo reagent (Promega, Madison, Wis.) according to the manufacturer's instructions. Cell viability IC50 values were calculated using XLFit, equation 201: y=A+((B−A)/(1+((x/C)^D))), where A=bottom, B=top, C=IC50, and D=slope. IC50 values are shown in Table B and are presented in ranges, in which “+++”<300 nM, 300 nM≤“++”<3000 nM, and “+”≥3000 nM. Effects of the test compounds on the viability of other cell lines such as MDA-MB-436, MDA-MB-231, SUM149PT, HCC1395, and UWB1.289 are determined in an analogous method.
On the technique in general: ATP-based viability assays read luminescence as a measure of living cells.

Test [2] concerns DLD-1 wild-type colorectal adenocarcinoma cells. The test can be described thus: Cell viability assay (Cell Titer-Glo), DLD-1 wild-type. The class given is cell-based. The conditions noted are these: Homo sapiens, DLD-1, 168 h, 7 days, 50 cells/well.
Excerpt: as §1, §2, §3

In another test the target is recombinant human PARP2 (Homo sapiens, UniProt Q9UGN5). The test can be described thus: PARP2 fluorescence polarization binding assay. The conditions noted are these: binding IC50, GST-tagged PARP2 20 nM, PARPi-FL probe 3 nM, 4 h at RT. As to the method: In some embodiments, the biological assay measures PARP-2 binding by way of fluorescence polarization measurements. In some embodiments, binding of a test compound to recombinant human PARP-2 reduces the amount of binding of a fluorescent probe, and consequently reduces the detected level of fluorescence polarization. […] In some embodiments, the serial dilutions, e.g., 100 nL of serial dilution, 90 nL of serial dilution, 80 nL of serial dilution, 70 nL of serial dilution, 60 nL of serial dilution, 50 nL of serial dilution, 30 nL of serial dilution, 20 nL of serial dilution, or 10 nL of serial dilution, are added to a multi-welled plate, e.g., a 1536-well plate, a 384-well plate, or a 96-well plate. In some embodiments, PARP-2, e.g., GST-tagged PARP-2, is diluted in assay buffer, e.g., 50 μL of assay buffer, 40 μL of assay buffer, e.g., 30 μL of assay buffer, 20 μL of assay buffer, 10 μL of assay buffer, or 5 μL of assay buffer, and is added to the plate. In some embodiments, the plate is centrifuged, e.g., at 1000 rpm for 1 min, and incubated, e.g., incubated for 30 minutes at room temperature (RT). In some embodiments, a fluorescent probe, e.g., 10 μL of 6 nM PARPi-FL (TOCRIS, Cat #6461), is diluted in an assay buffer and is added to the plate. […] In some embodiments, the plate is centrifuged, e.g., at 1000 rpm for 1 minute, and the assay plate is incubated, e.g., for 4 h at RT. In some embodiments, the samples in each well are read using a plate reader, e.g., an Envision instrument using excitation=480 nm, and emission wavelength=FITC FP-P pol 535 nm & FITC FP-S pol 535 nm). […] In some embodiments, binding IC50 values are calculated using XLFit (equation 201: […])^D))), where A=bottom, B=top, C=IC50, and D=slope) with a floating top and bottom for curves. Compounds of the present disclosure were tested in a PARP2 fluorescence polarization binding assay at Pharmaron (Beijing, P.R. China). In this biochemical assay, binding of test compound to recombinant human PARP2 reduces the amount of binding of a fluorescent probe, and consequently reduces the detected level of fluorescence polarization. Test compound stock solutions were prepared in DMSO and then serially diluted into 10 concentrations by 3-fold dilution in a 384-well plate using a TECAN EVO200. […] Samples in each well were read using an Envision instrument (Perkin-Elmer; Ex=480 nm Em=FITC FP-P pol 535 nm & FITC FP-S pol 535 nm). […] Binding IC50 values were calculated using XLFit (equation 201: […])^D))), where A=bottom, B=top, C=IC50, and D=slope) with a floating top and bottom for curves.
Sequence of recombinant human PARP2 (Q9UGN5 whole entry): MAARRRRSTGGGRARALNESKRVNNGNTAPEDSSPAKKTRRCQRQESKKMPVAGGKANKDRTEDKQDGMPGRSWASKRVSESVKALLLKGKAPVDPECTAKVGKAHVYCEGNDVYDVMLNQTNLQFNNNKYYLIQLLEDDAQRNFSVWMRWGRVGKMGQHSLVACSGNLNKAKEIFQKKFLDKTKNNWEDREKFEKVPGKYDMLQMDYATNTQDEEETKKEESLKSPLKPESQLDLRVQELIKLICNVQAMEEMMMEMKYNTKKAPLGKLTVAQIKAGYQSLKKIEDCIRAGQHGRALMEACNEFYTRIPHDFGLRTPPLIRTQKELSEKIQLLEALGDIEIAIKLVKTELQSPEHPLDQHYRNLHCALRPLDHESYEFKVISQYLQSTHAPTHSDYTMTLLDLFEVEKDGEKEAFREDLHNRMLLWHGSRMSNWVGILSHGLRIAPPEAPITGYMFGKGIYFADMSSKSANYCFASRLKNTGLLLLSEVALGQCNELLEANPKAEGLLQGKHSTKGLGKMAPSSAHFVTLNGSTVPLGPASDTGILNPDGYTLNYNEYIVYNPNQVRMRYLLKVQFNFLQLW

pIC50: −log10 of the molar value. Structures can show the parent of a compound that is named as a salt.

One may read the pIC50 as −log10 of the IC50, conventionally taken in molar units. On to `CCc1cc2ncc(CN3CCCN(c4ccc(C(=O)NC)nc4)CC3)cc2[nH]c1=O` [Compound No. 6, 5-(4-((7-ethyl-6-oxo-5H-1,5-naphthyridin-3-yl)methyl)-1,4-diazepan-1-yl)-N-methylpyridine-2-carboxamide], for which the negative-log IC50 (pIC50) (in test [1]; in test [2]; at recombinant human PARP2) was not above 5.52 throughout.

For the compound `CCc1cc2ncc(CN3CC4CN(c5ccc(C(=O)NC)nc5)CC4C3)cc2[nH]c1=O` (stereo not drawn) [Compound No. 7, 5-(5-((7-ethyl-6-oxo-5,6-dihydro-1,5-naphthyridin-3-yl)methyl)hexahydropyrrolo[3,4-c]pyrrol-2(1H)-yl)-N-methylpicolinamide], the figures for the pIC50 (in test [1]; in test [2]; on recombinant human PARP2) were 5.52 to 6.52, not above 5.52 and not above 5.52, respectively.

As for `CCc1cc2ncc(CN3CC4(C3)CN(c3ccc(C(=O)NC)nc3)C4)cc2[nH]c1=O` [Compound No. 9, 5-(6-((7-ethyl-6-oxo-5,6-dihydro-1,5-naphthyridin-3-yl)methyl)-2,6-diazaspiro[3.3]heptan-2-yl)-N-methylpicolinamide formate], the negative logarithm of the IC50 (pIC50) (in test [1]; in test [2]; at recombinant human PARP2) was not above 5.52 throughout.

As for `CCc1cc2ncc(CNC3CC(Nc4ccc(C(=O)NC)nc4)C3)cc2[nH]c1=O` (stereo not drawn) [Compound No. 29, 5-((3-(((7-ethyl-6-oxo-5,6-dihydro-1,5-naphthyridin-3-yl)methyl)amino)cyclobutyl)amino)-N-methylpicolinamide], the negative-log IC50 (pIC50) (in test [1]; in test [2]; at recombinant human PARP2) was not above 5.52 each time.
